Read-outs that look alike come from different tables or passages of the source.
Assays:
BRD4-BD1 (44-164) = BRD4-BD1 (44-164) (Homo sapiens (Human), UniProt O60885); assay: Alphascreen binding assay BRD4-BD1; conditions: BRD4(1) H4; read-out: Biochemical activity (IC50 μM) BRD4(1) H4
Outline: (§1)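 First, compound was preincubated 1 h at room temperature with the His-tagged BRD4 protein (BD1 44-164 or tandem BD12 1-477) and acetylated H4 peptide. Next, donor and acceptor beads were added at 7.5 μg/ml final. After 30 min, AlphaScreen emission was recorded.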

BRD4-BD12 (1-477) = BRD4-BD12 (1-477) (Homo sapiens (Human), UniProt O60885); assay: Alphascreen binding assay BRD4-BD12; conditions: BRD4(1 2) H4; read-out: Biochemical activity (IC50 μM) BRD4(1 2) H4
Outline: as §1

MV-4-11 cells = assay: Oncology cell growth assay MV-4-11 (CellTiter Glo); assay type: cell-based
Outline: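 MV-4-11 AML cells (MLL-AF4), 3000 per well, exposed to 8-point 1:3 compound titration from 10 μM top concentration (0.2% DMSO) for 72 h. Viability by CellTiter Glo luminescence, normalized to DMSO controls; pIC50 from four-parameter curve fit.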

bromodomain = assay: at least one of the bromodomain cell assays of Example 57; assay type: cell-based; conditions: at least one of the bromodomain cell assays described in Example 57; read-out: IC50 in at least one of the bromodomain cell assays
[1] = Homo sapiens, MV4-11, 72 h; read-out: Cell activity (IC50 μM) MV-4-11 3d-Growth

| Molecule | IC50 (BRD4-BD1 (44-164)) | IC50 (bromodomain) | further results |
| --- | --- | --- | --- |
| C#Cc1cn(C(C)c2ccccc2)c2cc(-c3c(C)noc3C)cnc12 (centres unmarked) [P-0289, 4-[3-ethynyl-1-(1-phenylethyl)pyrrolo[3,2-b]pyridin-6-yl]-3,5-dimethyl-isoxazole] | < 1 µM | < 10000 nM | IC50 (BRD4-BD12 (1-477)): < 1 µM; IC50 (MV-4-11 cells; [1]): < 1 µM |
| Cc1noc(C)c1-c1cnc2c(-c3ccnc(C4CC4)c3)cn(C(C)c3ccccc3)c2c1 (centres unmarked) [P-0268, 4-[3-(2-cyclopropyl-4-pyridyl)-1-(1-phenylethyl)pyrrolo[3,2-b]pyridin-6-yl]-3,5-dimethyl-isoxazole] | < 1 µM | < 10000 nM | IC50 (BRD4-BD12 (1-477)): < 1 µM; IC50 (MV-4-11 cells; [1]): < 1 µM |
| Cc1noc(C)c1-c1cnc2c(c1)c(C(O)C1CCC(F)(F)CC1)cn2C (centres unmarked) [P-0101, (4,4-difluorocyclohexyl)-[5-(3,5-dimethylisoxazol-4-yl)-1-methyl-pyrrolo[2,3-b]pyridin-3-yl]methanol] | < 1 µM |  | IC50 (MV-4-11 cells; Homo sapiens, MV4-11, 72 h, read-out: Cell activity (IC50 μM) MV-4-11 3d-Growth): < 1 µM |
| CCS(=O)(=O)N1CCC(Cc2cn(C)c3ncc(-c4c(C)noc4C)cc23)CC1 [P-0116, 4-[3-[(1-ethylsulfonyl-4-piperidyl)methyl]-1-methyl-pyrrolo[2,3-b]pyridin-5-yl]-3,5-dimethyl-isoxazole] | < 1 µM | < 10000 nM | IC50 (MV-4-11 cells; [1]): 1 to 10 µM |
| Cc1noc(C)c1-c1cnc2c(-c3cnn(C)c3)cn(C(C)c3ccccn3)c2c1 (centres unmarked) [P-0217, 3,5-dimethyl-4-[3-(1-methylpyrazol-4-yl)-1-[1-(2-pyridyl)ethyl]pyrrolo[3,2-b]pyridin-6-yl]isoxazole] | < 1 µM | < 10000 nM | IC50 (MV-4-11 cells; [1]): < 1 µM |
| Cc1noc(C)c1-c1cnc2c(c1)c(CC1CCN(C(=O)Nc3ccccc3)CC1)cn2C [P-0114, 4-[[5-(3,5-dimethylisoxazol-4-yl)-1-methyl-pyrrolo[2,3-b]pyridin-3-yl]methyl]-N-phenyl-piperidine-1-carboxamide] | < 1 µM | < 10000 nM | IC50 (MV-4-11 cells; [1]): < 1 µM |
| Cc1noc(C)c1-c1cnc2c(-c3cnn(CC(F)(F)F)c3)cn(C(C)c3ccccc3)c2c1 (centres unmarked) [P-0202, 3,5-dimethyl-4-[1-(1-phenyl-ethyl)-3-[1-(2,2,2-trifluoro-ethyl)pyrazol-4-yl]pyrrolo[3,2-b]pyridin-6-yl]isoxazole] | < 1 µM | < 10000 nM | IC50 (MV-4-11 cells; [1]): < 1 µM |
| Cc1n[nH]cc1-c1cnc2ccn(CC3CCC(F)(F)CC3)c2c1 [P-0292, l-[(4,4-difluorocyclohexyl)methyl]-6-(3-methyl-1H-pyrazol-4-yl)pyrrolo[3,2-b]pyridine] | 10 to 200 µM | < 10000 nM | IC50 (MV-4-11 cells; [1]): 1 to 10 µM |
| Cc1noc(C)c1-c1cnc2c(c1)c(CC1CCN(S(=O)(=O)C3CCCC3)CC1)cn2C [P-0119, 4-[3-[(1-cyclopentylsulfonyl-4-piperidyl)methyl]-1-methyl-pyrrolo[2,3-b]pyridin-5-yl]-3,5-dimethyl-isoxazole] | 1 to 10 µM | < 10000 nM | IC50 (MV-4-11 cells; [1]): 1 to 10 µM |
| [6-(3,5-dimethylisoxazol-4-yl)-1H-pyrrolo[3,2-b]pyridin-3-yl]-tetrahydrothiopyran-4-yl-methanone [P-0091] | < 1 µM | < 10000 nM | IC50 (MV-4-11 cells; MV-4-11 3d-Growth; read-out: Cell activity (IC50 μM) MV-4-11 3d-Growth): 1 to 10 µM |
| Cc1noc(C)c1-c1cnc2c(I)cn(C(C)c3ccccc3)c2c1 (centres unmarked) [P-0224, 4-[3-iodo-1-(1-phenylethyl)pyrrolo[3,2-b]pyridin-6-yl]-3,5-dimethyl-isoxazole] | < 1 µM |  |  |
| Cc1noc(C)c1-c1cnc2c(-c3cnn(C(F)F)c3)cn(S(=O)(=O)CCC(F)(F)F)c2c1 [P-0136, 4-[3-[1-(difluoro-methyl)pyrazol-4-yl]-1-(3,3,3-trifluoro-propylsulfonyl)pyrrolo[3,2-b]pyridin-6-yl]-3,5-dimethyl-isoxazole] | < 1 µM |  |  |
| Cc1nn(C)cc1-c1cn(C(C)c2ccccc2)c2cc(-c3c(C)noc3C)cnc12 (centres unmarked) [P-0205, 4-[3-(1,3-dimethylpyrazol-4-yl)-1-(1-phenylethyl)pyrrolo[3,2-b]pyridin-6-yl]-3,5-dimethyl-isoxazole] | < 1 µM |  |  |
| Cc1noc(C)c1-c1cnc2[nH]cc([S+]([O-])c3cccc(F)c3)c2c1 (centres unmarked) [P-0142, 4-[3-(3-fluorophenyl)sulfinyl-1H-pyrrolo[2,3-b]pyridin-5-yl]-3,5-dimethyl-isoxazole] | < 1 µM |  |  |
| C=CCn1cc(-c2cn(C(C)c3ccccc3)c3cc(-c4c(C)noc4C)cnc23)cn1 (centres unmarked) [P-0201, 4-[3-(1-allylpyrazol-4-yl)-1-(1-phenylethyl)pyrrolo[3,2-b]pyridin-6-yl]-3,5-dimethyl-isoxazole] | < 1 µM |  |  |
| Cc1noc(C)c1-c1cnc2c(-c3cnn(C)c3)cn([C@@H](C)c3ccccc3)c2c1 [P-0222, 3,5-dimethyl-4-[3-(1-methylpyrazol-4-yl)-1-[(1S)-1-phenylethyl]pyrrolo[3,2-b]pyridin-6-yl]isoxazole] | < 1 µM |  |  |

| Molecule | IC50 (BRD4-BD1 (44-164)) | IC50 (bromodomain) | further results |
| --- | --- | --- | --- |
| Cc1noc(C)c1-c1cnc2[nH]cc(C(O)c3cccc4c3OC(F)(F)O4)c2c1 (centres unmarked) [P-0041, (2,2-difluoro-1,3-benzodioxol-4-yl)-[5-(3,5-dimethylisoxazol-4-yl)-1H-pyrrolo[2,3-b]pyridin-3-yl]methanol] | < 1 µM |  |  |
| COCCn1cc(-c2cn(S(=O)(=O)C3CCCC3)c3cc(-c4c(C)noc4C)cnc23)cn1 [P-0151, 4-[1-cyclopentyl-sulfonyl-3-[1-(2-methoxyethyl)pyrazol-4-yl]pyrrolo[3,2-b]pyridin-6-yl]-3,5-dimethyl-isoxazole] | < 1 µM |  |  |
| CCS(=O)(=O)n1cc(C(OC)C2CCC(F)(F)CC2)c2cc(-c3c(C)noc3C)cnc21 (centres unmarked) [P-0078, 4-[3-[(4,4-difluoro-cyclohexyl)-methoxy-methyl]-1-ethylsulfonyl-pyrrolo[2,3-b]pyridin-5-yl]-3,5-dimethyl-isoxazole] | < 1 µM |  |  |
| Cc1noc(C)c1-c1cnc2c(-c3cnn(C4CCOC4)c3)cn(S(=O)(=O)C3CCCC3)c2c1 (centres unmarked) [P-0153, 4-[1-cyclopentyl-sulfonyl-3-(1-tetrahydrofuran-3-ylpyrazol-4-yl)pyrrolo[3,2-b]pyridin-6-yl]-3,5-dimethyl-isoxazole] | < 1 µM |  |  |
| COc1ncc(C(O)c2c[nH]c3ncc(-c4c(C)noc4C)cc23)cc1F (centres unmarked) [P-0025, [5-(3,5-dimethylisoxazol-4-yl)-1H-pyrrolo[2,3-b]pyridin-3-yl]-(5-fluoro-6-methoxy-3-pyridyl)methanol] | < 1 µM |  |  |
| Cc1noc(C)c1-c1cnc2c(-c3cnn(C)c3)cn(S(=O)(=O)c3ccccc3F)c2c1 [P-0121, 4-[1-(2-fluorophenyl)sulfonyl-3-(1-methyl-pyrazol-4-yl)pyrrolo[3,2-b]pyridin-6-yl]-3,5-dimethyl-isoxazole] | < 1 µM |  |  |
| COc1ncc(-c2cn(S(=O)(=O)C3CCCC3)c3cc(-c4c(C)noc4C)cnc23)cn1 [P-0105, 4-[1-cyclopentylsulfonyl-3-(2-methoxypyrimidin-5-yl)pyrrolo[3,2-b]pyridin-6-yl]-3,5-dimethyl-isoxazole] | < 1 µM |  |  |
| CCCCS(=O)(=O)n1ccc2ncc(-c3c(C)noc3C)cc21 [P-0036, 4-(1-butylsulfonylpyrrolo[3,2-b]pyridin-6-yl)-3,5-dimethyl-isoxazole] | < 1 µM |  |  |
| 1-(benzenesulfonyl)-5-(3,5-dimethylisoxazol-4-yl)pyrrolo[2,3-b]pyridine-3-carboxylic acid [P-0169] | < 1 µM | < 10000 nM |  |
| Cc1noc(C)c1-c1cnc2c(-c3cnn(C)c3)cn(CC3(F)CCCCC3)c2c1 [P-0212, 4-[1-[(1-fluorocyclohexyl)methyl]-3-(1-methylpyrazol-4-yl)pyrrolo[3,2-b]pyridin-6-yl]-3,5-dimethyl-isoxazole] | < 1 µM |  |  |
| Cc1noc(C)c1-c1cnc2c(-c3cnn(C)c3)cn(C(C)c3ccccc3)c2c1 (centres unmarked) [P-0161, 3,5-dimethyl-4-[3-(1-methylpyrazol-4-yl)-1-(1-phenylethyl)pyrrolo[3,2-b]pyridin-6-yl]isoxazole] | < 1 µM |  |  |
| CCCS(=O)(=O)n1cc(-c2cnn(C)c2)c2ncc(-c3c(C)noc3C)cc21 [P-0111, 3,5-dimethyl-4-[3-(1-methylpyrazol-4-yl)-1-propylsulfonyl-pyrrolo[3,2-b]pyridin-6-yl]isoxazole] | < 1 µM |  |  |
| CCC(c1cn(C)c2ncc(-c3c(C)noc3C)cc12)C1CCC(F)(F)CC1 (centres unmarked) [P-0118, 4-[3-[1-(4,4-difluorocyclohexyl)propyl]-1-methyl-pyrrolo[2,3-b]pyridin-5-yl]-3,5-dimethyl-isoxazole] | < 1 µM |  |  |
| Cc1noc(C)c1-c1cnc2[nH]cc(Cc3c(F)cccc3Cl)c2c1 [P-0027, 4-[3-[(2-chloro-6-fluoro-phenyl)methyl]-1H-pyrrolo[2,3-b]pyridin-5-yl]-3,5-dimethyl-isoxazole] | < 1 µM |  |  |
| CCc1[nH]c2ncc(-c3c(C)noc3C)cc2c1C(OC)C1CCC(F)(F)CC1 (centres unmarked) [P-0045, 4-[3-[(4,4-difluorocyclohexyl)-methoxy-methyl]-2-ethyl-1H-pyrrolo[2,3-b]pyridin-5-yl]-3,5-dimethyl-isoxazole] | < 1 µM |  |  |

Source: patent US10519177B2, “Heterocyclic compounds and uses thereof” (Plexxikon Inc., priority 2013, dated 2019)
